Data on 1 compound can be found in patent US20030143586A1, “Genetic hypermutability of plants for gene discovery and diagnosis” (priority 2001, published 2003).

Assay [1] has as its system horseweed (Conyza canadensis). Nature of the assay: Glyphosate applied to horseweed plants to confirm sensitivity to the herbicide. Type of assay: in vivo. As to the method:
Isolation and modification of the genomic DNA: Total horseweed (Conyza Canadensis) genomic DNA was isolated from 100 mg of leaves using Plant DNAZol as described by the manufacturer (Invitrogen). The typical yield was 10-20 μg DNA per preparation. Two different biotypes of horseweed were used as source of the DNA and were designated HR and HS.
Analysis of the DNA Marker: Horseweeds were either germinated from seeds or seedlings were transferred from the field into the greenhouse. DNAs from the genomes of HR and HS horseweeds were isolated. At the same time, glyphosate was applied at 2 lb active ingredient/acre rate to confirm the plants' sensitivity to the herbicide.

In assay [2] the test system is Conyza canadensis field populations. The following applies: cited from earlier work.

With `O=C(O)CNCP(=O)(O)O` [Glyphosate, glyphosate], the “response to glyphosate treatment” value in assay [1] (horseweed biotype designated HR (DNA source, Example 4)) is given as “tolerance”; in assay [1] (horseweed biotype designated HS (DNA source, Example 4)), “sensitive”. Besides, in assay [2], the “field populations naturally resistant to glyphosate” value is “approximately 15%”.
